Our source for the IC50 and EC50 values is US11066414B2, “Cot modulators and methods of use thereof” (Gilead Sciences, Inc., priority 2015, dated 2021).

The IC50 is the concentration at which inhibition is half-maximal. Read a high IC50 as lower potency. As a reminder, the EC50 is the concentration giving half of the maximal effect.

Where two headings read alike, the source gives them in different places.

One experiment concerns the target Human Cot (Homo sapiens (Human), UniProt P41279). Put plainly: High Throughput Cot Biochemical Assay. As to conditions: IC50 HTRF.
The subject of the next experiment is TNFα. Put plainly: Cot Monocyte TNFα Cell Based Assay. The conditions noted are these: Homo sapiens, Monocyte.
[1] abbreviates: Cot HTRF (TR-FRET KinEASE) biochemical assay, 400 μM ATP.
Where [2] appears, read: read-out: EC50 TNF, LPS-stimulated human monocytes, TNFα TR-FRET.
[3] abbreviates: Cot HTRF (TR-FRET) biochemical assay.
The mark [4] stands for this setting: read-out: EC50 TNF, LPS-stimulated human monocytes, TNFα.

Sequence of Human Cot (P41279 30-397): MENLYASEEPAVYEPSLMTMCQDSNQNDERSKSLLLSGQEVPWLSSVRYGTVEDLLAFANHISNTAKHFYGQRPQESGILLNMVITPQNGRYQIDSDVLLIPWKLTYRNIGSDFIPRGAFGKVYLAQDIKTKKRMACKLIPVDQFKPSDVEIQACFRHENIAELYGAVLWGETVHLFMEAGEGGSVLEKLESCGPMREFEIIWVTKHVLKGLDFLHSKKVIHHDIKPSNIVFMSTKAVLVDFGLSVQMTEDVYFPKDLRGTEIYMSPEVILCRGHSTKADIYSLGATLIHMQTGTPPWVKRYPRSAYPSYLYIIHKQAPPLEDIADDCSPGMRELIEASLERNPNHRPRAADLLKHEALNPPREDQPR

With `COc1ccc2c([C@H](Nc3cc(C#N)c4ncc(C#N)c(NCC(C)(C)C)c4c3)c3cn(C4(C(F)(F)F)CC4)nn3)cccc2n1` [Example 811, (S)-6-(((2-methoxyquinolin-5-yl)(1-(1-(trifluoromethyl)cyclopropyl)-1H-1,2,3-triazol-4-yl)methyl)amino)-4-(neopentylamino)quinoline-3,8-dicarbonitrile], on Human Cot (setting [1]), the IC50 was 11 nM. Besides, the EC50 with TNFα (setting [2]) came out at 333 nM.
In turn, `N#Cc1cnc2c(Cl)cc(N[C@@H](c3cccnc3)c3cn(CCCN4CCCC4)nn3)cc2c1Nc1cnc(F)c(F)c1` [Example 200, (S)-8-chloro-4-((5,6-difluoropyridin-3-yl)amino)-6-((pyridin-3-yl(1-(3-(pyrrolidin-1-yl)propyl)-1H-1,2,3-triazol-4-yl)methyl)amino)quinoline-3-carbonitrile] gave an IC50 at Human Cot (setting [3]) of 7 nM. In the experiment on TNFα (setting [4]), the EC50 came to 558 nM.
At Human Cot (setting [1]), `Cc1nc(F)ccc1[C@@H](c1cn(C2(C(F)(F)F)CC2)nn1)N(C)c1cc(Cl)c2ncc(C#N)c(NCC(C)(C)C)c2c1` [Example 979, (S)-8-chloro-6-(((6-fluoro-2-methylpyridin-3-yl)(1-(1-(trifluoromethyl)cyclopropyl)-1H-1,2,3-triazol-4-yl)methyl)(methyl)amino)-4-(neopentylamino)quinoline-3-carbonitrile] gave an IC50 of 244 nM. The EC50 in the experiment with TNFα (setting [2]) was 1000 nM.
`CC(C)(C)CNc1c(C#N)cnc2c(C#N)cc(N[C@H](c3cn(C4(C(F)(F)F)CC4)nn3)c3ccc(C#N)c4ncccc34)cc12` [Example 710, (S)-6-(((8-cyanoquinolin-5-yl)(1-(1-(trifluoromethyl)cyclopropyl)-1H-1,2,3-triazol-4-yl)methyl)amino)-4-(neopentylamino)quinoline-3,8-dicarbonitrile] showed an IC50 on Human Cot (setting [3]) of 5 nM. For the same compound, in the experiment on TNFα (setting [4]), the EC50 stood at 148 nM.
On Human Cot (setting [3]), `Cn1ncc2c([C@H](Nc3cc(Cl)c4ncc(C#N)c(NCC(C)(C)C)c4c3)c3cn(C4(C)CC4)nn3)cccc21` [Example 525, (S)-8-chloro-6-(((1-methyl-1H-indazol-4-yl)(1-(1-methylcyclopropyl)-1H-1,2,3-triazol-4-yl)methyl)amino)-4-(neopentylamino)quinoline-3-carbonitrile] came in with an IC50 of 4 nM. Besides, in the experiment with TNFα (setting [4]), the EC50 is 164 nM.
The like results for `CC(C)(C)CNc1c(C#N)cnc2c(Cl)cc(N[C@H](c3cn(C4(C(F)(F)F)CC4)nn3)c3cccc4c(=O)[nH]ccc34)cc12` [Example 676, (S)-8-chloro-4-(neopentylamino)-6-(((1-oxo-1,2-dihydroisoquinolin-5-yl)(1-(1-(trifluoromethyl)cyclopropyl)-1H-1,2,3-triazol-4-yl)methyl)amino)quinoline-3-carbonitrile] were, in that order, 6 nM and 112 nM.
On the same counts, the results for `Cc1nc(F)ccc1[C@H](Nc1cc(C#N)c2ncc(C#N)c(NCC(C)(C)CCl)c2c1)c1cn(C2(C(F)(F)F)CC2)nn1` [Example 637, (S)-4-((3-chloro-2,2-dimethylpropyl)amino)-6-(((6-fluoro-2-methylpyridin-3-yl)(1-(1-(trifluoromethyl)-cyclopropyl)-1H-1,2,3-triazol-4-yl)methyl)amino)-quinoline-3,8-dicarbonitrile] are 3 nM and 85 nM.
In the case of `Cc1nc(F)ccc1[C@H](Nc1cc(Cl)c2ncc(C#N)c(NCC(C)(C)C)c2c1F)c1cn(C2(C(F)F)CC2)nn1` [Example 983, (S)-8-chloro-6-(((1-(1-(difluoromethyl)cyclopropyl)-1H-1,2,3-triazol-4-yl)(6-fluoro-2-methylpyridin-3-yl)methyl)amino)-5-fluoro-4-(neopentylamino)quinoline-3-carbonitrile], on Human Cot (setting [1]), inhibition was half-maximal at 9640 nM (IC50). Besides, the EC50 in the experiment on TNFα (setting [2]) was determined as 1000 nM.
